# Assay results as given in article PMC7405012, “Detection of Chaetomium globosum, Ch. cochliodes and Ch. rectangulare during the Diversity Tracking of Mycotoxin-Producing Chaetomium-like Isolates Obtained in Buildings in Finland” (Toxins, 2020).
# Read-outs that look alike come from different tables or passages of the source.
# Key:
# Assay in all cases: Resistance to biocides: conidial germination
# Assay type in all cases: cell-based
# [1] = system: Paecilomyces variotii Pac2/kop; settings: strain Pac2/kop, indoor Paecilomyces variotii
# Method: (§1) The toxicity of biocides and chemicals towards the indoor Chaetomium-like isolates and the reference indoor strains of the genera Aspergillus, Paecilomyces, Penicillium and Trichoderma was assessed in parallel with the six parameters presented in the Supplementary Materials: (1) germ tube assay (Figure S3); (2) estimation of turbidity (Figure S4); (3) visual emission of fluorescence (excitation at 360 nm); (4) visual resporulation of conidia; (5) inhibition of glucose consumption; and (6) resazurin reduction. All assays were performed in malt extract broth (12 g L^−1 malt extract, 7.2 µmol mL^−1 glucose, pH 5.5; Scharlab, Barcelona, Spain) in 96-well microtiter plates as described for the ICP assay.
# (§2) The assays measuring inhibition of germination of conidia were done with spore suspensions of 1–2 × 10^6 fungal spores mL−^1. The tests were performed in malt extract broth (Oxoid, Hampshire United Kingdom) 12 g in 1 L, pH 5.5, glucose 7.1 mmol L^−1, and performed on microtiter plates as described by Bencsik et al. for the ICP assay. The germ tube germination is visualized in Figure S3, and the tests estimating turbidity and emission of fluorescence provoked by the germinated and metabolically active conidia and C. globosum ascospores are visualized in Figures S4 and S5. Examples of the tests estimating fluorescence emission, turbidity and re-sporulation of conidia and ascospores are compared in Figure S5. The difference of the endpoints measured with the different assays was between […]. The resazurin reduction assays (Figure S6) were performed as described for the ICP assay, except that the microtiter plates were visually inspected for the change of the blue/violet color of resazurin (indicating inhibition of germination of the exposed conidia) to the […] (indicating metabolic activity and germination of the exposed conidia).
# (§3) The formation of germ tubes was inspected by a phase-contrast microscope (Olympus CKX41, Tokyo, Japan; magnification 400×) and an image recording software (Cellsense® standard version 11.0.06, Olympus Soft Imaging Solutions GmbH, Münster, Germany, 2012) after 1 and 2 days of incubation at 28 °C. The EC50 corresponded to the inhibition of 50% (estimated as the concentration between EC0 and EC100) of the conidia compared to the ethanol control (the growth medium containing 1% of ethanol). The tests were run in triplicate and calibrated with triclosan (CAS: 3380-34-5; Sigma Chemical Co., St. Louis, MO, USA) giving a mean SD of ±<20%.
# [2] = system: Aspergillus westerdijkiae AW/KL; settings: strain AW/KL
# Method: as §1, §2, §3
# [3] = system: Indoor Trichoderma atroviride 14/AM; settings: strain 14/AM
# Method: as §1, §2, §3
# [4] = system: Aspergillus section Nigri Asp 32; settings: strain Asp 32, indoor Aspergillus section Nigri
# Method: as §1, §2, §3
# [5] = system: Aspergillus calidoustus MH4; settings: strain MH4, indoor Aspergillus calidoustus
# Method: as §1, §2, §3
# [6] = system: Penicillium sp. 35/skk; settings: strain 35/skk, indoor Penicillium sp.
# Method: as §1, §2, §3
# [7] = system: Paecilomyces sp. Pec1/skk; settings: strain Pec1/skk, indoor Paecilomyces sp.
# Method: as §1, §2, §3
# [8] = system: Indoor Trichoderma atroviride Ke14; settings: strain Ke14, indoor Trichoderma atroviride
# Method: as §1, §2, §3
# [9] = system: Aspergillus section Flavi 1/37; settings: strain 1/37, indoor Aspergillus section Flavi
# Method: as §1, §2, §3
# [10] = system: Paecilomyces variotii Pac1/kop; settings: strain Pac1/kop, indoor Paecilomyces variotii
# Method: as §1, §2, §3
# [11] = system: Paecilomyces sp. Pec1/his; settings: strain Pec1/his, indoor Paecilomyces sp.
# Method: as §1, §2, §3
# [12] = system: Penicillium sp. Vaip/skk; settings: strain Vaip/skk, indoor Penicillium sp.
# Method: as §1, §2, §3
# [13] = system: Aspergillus versicolor Gas/226; settings: strain Gas/226, Aspergillus versicolor
# Method: as §1, §2, §3
# [14] = system: Trichoderma longibrachiatum THG; settings: strain THG, indoor Trichoderma longibrachiatum
# Method: as §1, §2, §3
# [15] = system: Aspergillus westerdijkiae PP3; settings: strain PP3, Aspergillus westerdijkiae
# Method: as §1, §2, §3
# [16] = system: Indoor Trichoderma atroviride H1/226; settings: strain H1/226, indoor Trichoderma atroviride
# Method: as §1, §2, §3
# [17] = system: Trichoderma citrinoviride SJ40; settings: strain SJ40, indoor Trichoderma citrinoviride
# Method: as §1, §2, §3
# [18] = system: Aspergillus section Flavi 7D; settings: strain 7D, indoor Aspergillus section Flavi
# Method: as §1, §2, §3
# [19] = system: Indoor Trichoderma atroviride KIV10; settings: strain KIV10, indoor Trichoderma atroviride
# Method: as §1, §2, §3
# [20] = system: Penicillium sp. 26/skk; settings: strain 26/skk, indoor Penicillium sp.
# Method: as §1, §2, §3
# [21] = system: Aspergillus section Nigri Asp21; settings: strain Asp21, indoor Aspergillus section Nigri
# Method: as §1, §2, §3
# [22] = system: Aspergillus westerdijkiae PP2; settings: strain PP2, Aspergillus westerdijkiae
# Method: as §1, §2, §3
# [23] = system: Penicillium sp. 20b/skk; settings: strain 20b/skk, indoor Penicillium sp.
# Method: as §1, §2, §3
# [24] = system: Aspergillus section Nigri Asp33b; settings: strain Asp33b, indoor Aspergillus section Nigri
# Method: as §1, §2, §3
# [25] = system: Penicillium sp. HJ2; settings: strain HJ2, indoor Penicillium sp.
# Method: as §1, §2, §3
# [26] = system: Aspergillus versicolor SL/3; settings: strain SL/3, Aspergillus versicolor
# Method: as §1, §2, §3
molecule,measurement,setting,value
"OCCOc1ccccc1 [Phenoxy-ethanol, phenoxyethanol]",EC50,[1]; read-out: EC50,3000 µg/mL
same,EC50,[2]; read-out: EC50,1500 µg/mL
same,EC50,[3]; read-out: EC50,3000 µg/mL
same,EC50,[4]; read-out: EC50,3000 µg/mL
same,EC50,[5]; read-out: EC50,3200 µg/mL
same,EC50,"[6]; SP.35/SKK, read-out: EC50",350 µg/mL
same,EC50,[7]; read-out: EC50,3000 µg/mL
same,EC50,[8]; read-out: EC50,1500 µg/mL
same,EC50,"[9]; FLAVI1/37, read-out: EC50",1500 µg/mL
same,EC50,[10]; read-out: EC50,3000 µg/mL
same,EC50,[11]; read-out: EC50,3000 µg/mL
same,EC50,[12]; read-out: EC50,800 µg/mL
same,EC50,[13]; read-out: EC50,400 µg/mL
same,EC50,[14]; read-out: EC50,1500 µg/mL
same,EC50,[15]; read-out: EC50,1500 µg/mL
same,EC50,[16]; read-out: EC50,1500 µg/mL
same,EC50,[17]; read-out: EC50,1500 µg/mL
same,EC50,"[18]; FLAVI7D, read-out: EC50",1500 µg/mL
same,EC50,[19]; read-out: EC50,3000 µg/mL
same,EC50,"[20]; SP.26/SKK, read-out: EC50",3000 µg/mL
same,EC50,[21]; read-out: EC50,3000 µg/mL
same,EC50,[22]; read-out: EC50,1500 µg/mL
same,EC50,"[23]; SP.20B/SKK, read-out: EC50",1500 µg/mL
same,EC50,[24]; read-out: EC50,3000 µg/mL
same,EC50,[25]; read-out: EC50,800 µg/mL
same,EC50,[26]; read-out: EC50,800 µg/mL
"Oc1cc(Cl)ccc1Oc1ccc(Cl)cc1Cl [Triclosan, 5-Chloro-2-(2,4-dichlorophenoxy)phenol]",EC50,[1]; read-out: EC50,4 µg/mL
same,EC50,[2]; read-out: EC50,16 µg/mL
same,EC50,[3]; read-out: EC50,30 µg/mL
same,EC50,[4]; read-out: EC50,16 µg/mL
same,EC50,[5]; read-out: EC50,16 µg/mL
same,EC50,[7]; read-out: EC50,4 µg/mL
same,EC50,[8]; read-out: EC50,16 µg/mL
same,EC50,"[9]; FLAVI1/37, read-out: EC50",8 µg/mL
same,EC50,[10]; read-out: EC50,4 µg/mL
same,EC50,[11]; read-out: EC50,30 µg/mL
same,EC50,[12]; read-out: EC50,4 µg/mL
same,EC50,[13]; read-out: EC50,16 µg/mL
same,EC50,[14]; read-out: EC50,16 µg/mL
same,EC50,[15]; read-out: EC50,16 µg/mL
same,EC50,[16]; read-out: EC50,16 µg/mL
same,EC50,[17]; read-out: EC50,8 µg/mL
same,EC50,"[18]; FLAVI7D, read-out: EC50",8 µg/mL
same,EC50,[19]; read-out: EC50,30 µg/mL
same,EC50,"[20]; SP.26/SKK, read-out: EC50",30 µg/mL
same,EC50,[21]; read-out: EC50,30 µg/mL
same,EC50,[22]; read-out: EC50,16 µg/mL
same,EC50,"[23]; SP.20B/SKK, read-out: EC50",2 µg/mL
same,EC50,[24]; read-out: EC50,16 µg/mL
same,EC50,[25]; read-out: EC50,8 µg/mL
same,EC50,[26]; read-out: EC50,16 µg/mL
polyhexamethylene biguanide hydrochloride [PHMB],EC50,[1],30 µg/mL
same,EC50,[2],60 µg/mL
same,EC50,[3],4 µg/mL
same,EC50,[4],60 µg/mL
same,EC50,[5],8 µg/mL
same,EC50,[6],30 µg/mL
same,EC50,[7],16 µg/mL
same,EC50,[8],4 µg/mL
same,EC50,[9],120 µg/mL
same,EC50,[10],30 µg/mL
same,EC50,[11],30 µg/mL
same,EC50,[12],8 µg/mL
same,EC50,[13],60 µg/mL
same,EC50,[14],1 µg/mL
same,EC50,[15],60 µg/mL
same,EC50,[16],2 µg/mL
same,EC50,[17],2 µg/mL
same,EC50,[18],120 µg/mL
same,EC50,[19],4 µg/mL
same,EC50,[20],30 µg/mL
same,EC50,[21],30 µg/mL
same,EC50,[22],60 µg/mL
same,EC50,[23],30 µg/mL
same,EC50,[24],30 µg/mL
same,EC50,[25],1 µg/mL
same,EC50,[26],60 µg/mL
